Test results taken from patent US20080249023A1 (priority 2004, published 2008).
Ends that are not written are not given here.

Experiments:
Bacillus subtilis = type: cell-based

| Sequence | effect on Bacillus subtilis in time kill assay (Bacillus subtilis) | detergent-like (lytic) activity (sheep red blood cells) |
| --- | --- | --- |
| RFARKGALRQKNV [Protein kinase C] | no effect |  |
| TRKKLFHIFHATIRSR [PAD-1.17, TRKKLFHIFHATIRSR] |  | did not appear to act as a detergent |
